Structures are written as SMILES. Values after ≈ are worked out from the molar mass of the structure shown. Square brackets hold non-standard residues; d marks the D form. Peptide text beside a SMILES is read from it. * marks the point of attachment. Pro(4R-Me) = C[C@H]1CN[C@H](C(=O)O)C1; Oleoyl = CCCCCCCC/C=C\CCCCCCCC(=O)*; hSer = N[C@@H](CCO)C(=O)O

Assay [1] has as its system Zika virus. The assay is described as follows: Antiviral activity against ZIKV Z16019 infected in A549 cells assessed as inhibition in viral replication at MOI of 1 incubated for 1 hr by plaque assay. The class given is functional, organism-based. The following applies: Z16019, A549, 1 h.
Assay [2] has as its system Influenza A virus. The assay is described as follows: Antiviral activity against Influenza A virus H3N2 subtype infected in MDCK cells assessed as inhibition of viral replication incubated for 48 hrs by CPE inhibition assay. In kind it is functional, organism-based.
Assay [3] has as its system Influenza A virus. The assay is described as follows: Antiviral activity against Influenza A virus H1N1 subtype infected in MDCK cells assessed as inhibition of viral replication incubated for 48 hrs by CPE inhibition assay. The class given is functional, organism-based.
Assay [4] deals with Influenza A virus. The assay is described as follows: Antiviral activity against Influenza A virus A/Puerto Rico/8/34(H1N1) strain infected in MDCK cells assessed as inhibition of viral infection incubated for 60 mins by CPE inhibition assay. In kind it is functional, organism-based. The following applies: 1 h.
Another assay has as its system Hepatitis C virus. The assay is described as follows: Antiviral activity against HCV J8CC. The class given is functional, organism-based, Hepacivirus hominis.
Assay [5] relates to dengue virus type 2. The assay is described as follows: Antiviral activity against DENV2 assessed as inhibition of viral replication by DENV RNA-dependent RNA polymerase assay. The class given is functional, organism-based.
In assay [6] the test system is dengue virus type 2. The assay is described as follows: Antiviral activity against DENV2 16681 infected in HEK293T/17 cells assessed as reduction in viral replication at MOI of 1 to 10 incubated for 24 hrs by standard plaque assay. In kind it is functional, organism-based. The following applies: Dengue virus, 16681, HEK293T/17, 24 h.
Assay [7] deals with Human immunodeficiency virus 1. The assay is described as follows: Antiviral activity against HIV-1 infected in SUP-T1 cells assessed as inhibition of viral replication at MOI of 1 treated for 48 hrs by luciferase assay. The class given is functional, organism-based. The following applies: Human immunodeficiency virus 1, SUP-T1, 48 h.
The test system of assay [8] is Influenza A virus. The assay is described as follows: Antiviral activity against Influenza A virus A/Puerto Rico/8/34(H1N1) strain infected in MDCK cells assessed as inhibition of viral infection by CPE inhibition assay. The class given is functional, organism-based.
For assay [9], the system named is Zika virus. The assay is described as follows: Antiviral activity against ZIKV infected in A549 cells assessed as viral replication inhibition. In kind it is functional, organism-based.
In assay [10] the test system is dengue virus type 2. The assay is described as follows: Antiviral activity against DENV2 00st-22A infected in Vero cells assessed as reduction in viral replication at MOI of 0.5 incubated for 48 hrs by focus-forming assay. The class given is functional, organism-based.

For `O=C(C(=O)c1c[nH]c2ccccc12)c1c[nH]c2ccccc12`, the EC50 (usually the midpoint of the concentration-response curve) in the assay with Zika virus [1] was determined as 4.2 µM. Turning to `CC[C@H]1O[C@@H]2O[C@H](/C=C/C=C/C=C/c3oc(=O)cc(OC/C=C(\C)C(=O)OC)c3C)[C@H](O)[C@]2(C)[C@@]1(C)O`, the EC50 with Influenza A virus [2] came to 6.2 µM; with Influenza A virus [3], 3.5 µM. On to `COC(=O)/C(C)=C/COc1cc(=O)oc(/C=C/C=C/C=C/[C@H]2O[C@H]3O[C@H](C)[C@](C)(O)[C@@]3(C)[C@H]2O)c1C`, for which the EC50 in the assay with Influenza A virus [2] came out at 8.9 µM. In the case of `COc1cc(O)c2c(c1)C(=O)C1=C(C2=O)[C@H](O)[C@@H](O)[C@@](C)(O)C1`, the IC50 (in general, the concentration at which inhibition is half-maximal) with Influenza A virus [4] came to 8.35 µg/mL (≈ 26.1 µM). In the assay with Hepatitis C virus, `CC[C@@H]1N[C@@H]2N(C1=O)c1ccccc1[C@@]2(O)C[C@@H]1C(=O)NC(=C(C)C)c2nc3ccccc3c(=O)n21` gave an EC50 of 129 µM. For the compound `CC(=O)OC/C=C(\C)[C@@H]1C(C)=C[C@@H]2CC[C@H](O)[C@H](C)[C@H]2[C@@H]1/C=C/C=C/C(=O)O`, the IC50 with dengue virus type 2 [5] came out at 13.6 µM. The same measure, in the same setting: next, `C/C=C(\C)[C@@H]1C(C)=C[C@@H]2CC(=O)C[C@H](C)[C@H]2[C@@H]1/C=C/C=C/C(=O)O`: 11.8 µM. As for `CC1(C)C(=O)N2c3ccccc3[C@@]3(C[C@H]4n5c(nc6ccccc6c5=O)C(=O)C(C)(C)[C@@]4(O)O3)[C@@H]2N1S(C)(=O)=O`, the EC50 with Hepatitis C virus came to 110 µM.

With `CC(C)[C@@H]1NC(=O)[C@@H](C[C@@]2(O)c3ccccc3N3C(=O)C(C)(C)N[C@@H]32)n2c1nc1ccccc1c2=O`, the EC50 in the assay with dengue virus type 2 [6] was 4.73 µM. Take `CC[C@H](C)[C@@H](O)C(=O)[C@H]1C2=COC(C)=CC2=CC(=O)[C@@]1(C)O`: in assay [7], the IC50 amounted to 0.5 µM. For the compound `COc1cccc2oc3cc(C)c(O)c(CO)c3c(=O)c12`, the IC50 in the assay on Influenza A virus [8] was determined as 4.7 µM.

Turning to `C=C(CC[C@@H](C)[C@H]1CC=C2C3=C(CC[C@@]21C)[C@@]1(C)CC[C@H](O)C[C@@H]1CC3=O)C(C)C`, the IC50 in assay [7] turned out to be 3.5 µM. Take `COc1ccc2oc3cc(C)c(O)c(CO)c3c(=O)c2c1OC`: the IC50 with Influenza A virus [8] was 2.17 µM.

On to `C=C(C)C#CC1=C[C@@H]2O[C@@H](C(C)(C)O)C[C@]23O[C@@H]3[C@H]1O`, for which, in assay [7], the IC50 came out at 16.1 µM. Consider `C[C@]1(O)CC2=C(C(=O)c3c(O)cc(O)cc3C2=O)[C@H](O)[C@H]1O`, for which, in the assay with Influenza A virus [4], the IC50 worked out at 2.59 µg/mL (≈ 8.46 µM). Turning to `C=C1CCC[C@]2(C)[C@H]3COC(=O)[C@H]3CC[C@@]12O`, in the assay on Influenza A virus [8], the IC50 turned out to be 2.96 µg/mL.

As for `CCCCCCCC/C=C\CCCCCCCC(=O)N[C@H](C(=O)N1C[C@H](C)C[C@H]1C(=O)N[C@H](C(=O)N[C@@H](CCOC(C)=O)C(=O)N[C@@H](C)C=O)C(C)C)[C@@H](C)O` (Oleoyl-T[Pro(4R-Me)]V[hSer](Ac)A-aldehyde), the EC50 with Zika virus [1] is 5 µM. Moreover, in the assay on Zika virus [9], the IC50 was 0.15 µM. For `COc1cc(O)c2c(c1)C(=O)C1=C(C[C@@H](O)[C@@](C)(O)C1)C2=O` [ALTERSOLANOL B], in the assay on Influenza A virus [4], the IC50 stood at 7.82 µg/mL (≈ 25.7 µM).

`C[C@H]1CCC/C=C/[C@@H]2C[C@H](O)C[C@H]2[C@H](O)/C=C/C(=O)O1` [BREFELDIN A]: the IC50 in the assay with dengue virus type 2 [10] was found to be 0.0546 µM. In the case of `CC[C@H](C)C(=O)[C@H]1C(=O)O[C@@]2(C)C(=O)C=C3C=C(C)OC=C3[C@H]12` [CHERMESINONE B], the concentration for half-maximal inhibition (IC50) in the assay with Influenza A virus [4] is 0.8 µg/mL (≈ 2.53 µM).

The values above are taken from ChEMBL document CHEMBL5230150, “Antiviral fungal metabolites and some insights into their contribution to the current COVID-19 pandemic” (Bioorg Med Chem, 2021).
